In PubChem BioAssay (NCI):
“And” between values parts separate entries of the source, which are not always exact repeats. Equal values may be shown once.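 How tested: cells in 96-well plates exposed to compound for 48 hours at five concentrations. GI50 is the concentration that inhibits growth by half. TGI is the concentration that stops growth completely.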

Assays:
Experiment in all cases: NCI anticancer screen, dose series, 48 h
LOX IMVI melanoma = system: LOX IMVI melanoma
RPMI-8226 leukemia = system: RPMI-8226 leukemia
HL-60(TB) leukemia = system: HL-60(TB) leukemia
HCC-2998 colon = system: HCC-2998 colon
UACC-257 melanoma = system: UACC-257 melanoma
SW-620 colon = system: SW-620 colon
SK-OV-3 ovarian = system: SK-OV-3 ovarian
MALME-3M melanoma = system: MALME-3M melanoma
HS 578T breast = system: HS 578T breast
NCI-H23 lung = system: NCI-H23 lung
IGROV1 ovarian = system: IGROV1 ovarian
T-47D breast = system: T-47D breast
OVCAR-3 ovarian = system: OVCAR-3 ovarian
M14 melanoma = system: M14 melanoma
UACC-62 melanoma = system: UACC-62 melanoma
EKVX NSCLC = system: EKVX NSCLC
SF-268 CNS = system: SF-268 CNS
MOLT-4 leukemia = system: MOLT-4 leukemia
DU-145 prostate = system: DU-145 prostate
SR leukemia = system: SR leukemia
SN12C renal = system: SN12C renal
SF-539 CNS = system: SF-539 CNS
A549 NSCLC = system: A549 NSCLC
HOP-92 NSCLC = system: HOP-92 NSCLC
MDA-MB-231 breast = system: MDA-MB-231 breast
NCI-H460 lung = system: NCI-H460 lung
CCRF-CEM leukemia = system: CCRF-CEM leukemia
COLO 205 colon = system: COLO 205 colon
BT-549 breast = system: BT-549 breast
NCI-H226 lung = system: NCI-H226 lung
NCI/ADR-RES ovarian = system: NCI/ADR-RES ovarian
TK-10 renal = system: TK-10 renal
OVCAR-4 ovarian = system: OVCAR-4 ovarian
ACHN renal = system: ACHN renal
HT29 colon = system: HT29 colon
786-0 renal = system: 786-0 renal
SNB-19 CNS = system: SNB-19 CNS
RXF 393 renal = system: RXF 393 renal
UO-31 renal = system: UO-31 renal
SK-MEL-5 melanoma = system: SK-MEL-5 melanoma
SF-295 CNS = system: SF-295 CNS
SK-MEL-28 melanoma = system: SK-MEL-28 melanoma
HOP-62 NSCLC = system: HOP-62 NSCLC
OVCAR-8 ovarian = system: OVCAR-8 ovarian
A498 renal = system: A498 renal
HCT-116 colon = system: HCT-116 colon
K-562 leukemia = system: K-562 leukemia
KM12 colon = system: KM12 colon
SK-MEL-2 melanoma = system: SK-MEL-2 melanoma
OVCAR-5 ovarian = system: OVCAR-5 ovarian
PC-3 prostate = system: PC-3 prostate
MCF7 breast = system: MCF7 breast
HCT-15 colon = system: HCT-15 colon
MDA-MB-435 = system: MDA-MB-435
NCI-H522 lung = system: NCI-H522 lung
U251 CNS = system: U251 CNS

With `COC(=O)N[C@H]1C=C[C@@H]2/C=C(C)/C=C/[C@@H](C)[C@H]([C@H](C)[C@H](O)[C@@H](C)NC(C)=O)OC(=O)/C=C/C=C(C)\C=C\[C@]2(C)C1` the GI50 (LOX IMVI melanoma) was 2.94 nM and 4.53 nM, the TGI (LOX IMVI melanoma) was 11 nM and 4.75 nM and the GI50 (RPMI-8226 leukemia) was 17.3 nM and 4.59 nM. For the same compound, the TGI (RPMI-8226 leukemia) was 21000 nM, the GI50 (HL-60(TB) leukemia) was 7.22 nM and 5.48 nM and the TGI (HL-60(TB) leukemia) was 19600 nM. The TGI (HCC-2998 colon) was greater than 45300 nM, the GI50 (UACC-257 melanoma) was 29 nM and 4.53 nM and the TGI (UACC-257 melanoma) was greater than 45300 nM. For the same compound, the GI50 (SW-620 colon) was 8.92 nM and 4.53 nM, the TGI (SW-620 colon) was 16200 nM and the GI50 (SK-OV-3 ovarian) was 6.7 nM. The GI50 (MALME-3M melanoma) was 1190 nM and 261 nM, the TGI (MALME-3M melanoma) was 10800 nM and the GI50 (HS 578T breast) was 29.3 nM and 16.5 nM. For the same compound, the TGI (HS 578T breast) was greater than 45300 nM, the GI50 (NCI-H23 lung) was 94.3 nM and 96.4 nM and the TGI (NCI-H23 lung) was greater than 45300 nM. The GI50 (IGROV1 ovarian) was 24.8 nM and 4.53 nM, the TGI (IGROV1 ovarian) was greater than 45300 nM and the GI50 (T-47D breast) was 6.96 nM and 4.53 nM. For the same compound, the TGI (T-47D breast) was greater than 45300 nM, the GI50 (OVCAR-3 ovarian) was 172 nM and 635 nM and the TGI (OVCAR-3 ovarian) was 16500 nM. The GI50 (M14 melanoma) was 3.69 nM and < 4.53 nM, the TGI (M14 melanoma) was 35.8 nM and < 4.53 nM and the GI50 (UACC-62 melanoma) was 18.9 nM and 19.6 nM. It also gave a TGI (UACC-62 melanoma) of 8920 nM, a TGI (EKVX NSCLC) greater than 45300 nM and a TGI (SF-268 CNS) greater than 45300 nM. For the same compound, the GI50 (MOLT-4 leukemia) was 8510 nM, the TGI (MOLT-4 leukemia) was greater than 45300 nM and the TGI (DU-145 prostate) was greater than 45300 nM. For the same compound, the GI50 (SR leukemia) was 7 nM and 4.53 nM, the TGI (SR leukemia) was 13400 nM and the GI50 (SN12C renal) was 8.13 nM and 5.18 nM. The TGI (SN12C renal) was greater than 45300 nM, the GI50 (SF-539 CNS) was 4.13 nM and 4.53 nM and the TGI (SF-539 CNS) was 6550 nM. The GI50 (A549 NSCLC) was 31.2 nM and 4.53 nM, the TGI (A549 NSCLC) was greater than 45300 nM and the GI50 (HOP-92 NSCLC) was 2.11 nM and 4.53 nM. For the same compound, the TGI (HOP-92 NSCLC) was 44 nM and 26.8 nM, the GI50 (MDA-MB-231 breast) was 2.28 nM and 4.53 nM and the GI50 (NCI-H460 lung) was 13.5 nM and 6.97 nM. For the same compound, the TGI (NCI-H460 lung) was greater than 45300 nM, the GI50 (CCRF-CEM leukemia) was 2580 nM and the TGI (CCRF-CEM leukemia) was greater than 45300 nM. For the same compound, the GI50 (COLO 205 colon) was 14 nM and 11.3 nM, the TGI (COLO 205 colon) was 7070 nM and the GI50 (BT-549 breast) was 18.7 nM and 12.6 nM. For the same compound, the TGI (BT-549 breast) was 42100 nM, the GI50 (NCI-H226 lung) was 28.3 nM and 5.04 nM and the TGI (NCI-H226 lung) was 9150 nM. The GI50 (NCI/ADR-RES ovarian) was 28.2 nM and 16.1 nM, the TGI (NCI/ADR-RES ovarian) was greater than 45300 nM and the GI50 (TK-10 renal) was 5120 nM and 5680 nM. The TGI (TK-10 renal) was greater than 45300 nM, the GI50 (OVCAR-4 ovarian) was 5920 nM and the TGI (OVCAR-4 ovarian) was greater than 45300 nM. For the same compound, the GI50 (ACHN renal) was 4.53 nM, the TGI (ACHN renal) was greater than 45300 nM and the GI50 (HT29 colon) was 6.18 nM and 4.53 nM. The TGI (HT29 colon) was greater than 45300 nM, the GI50 (786-0 renal) was 16.5 nM and 7.46 nM and the TGI (786-0 renal) was greater than 45300 nM. The GI50 (SNB-19 CNS) was 118 nM and 16.4 nM, the TGI (SNB-19 CNS) was greater than 45300 nM and the GI50 (RXF 393 renal) was 4.49 nM and 4.53 nM. For the same compound, the TGI (RXF 393 renal) was 16200 nM, the GI50 (UO-31 renal) was 7.47 nM and 4.53 nM and the TGI (UO-31 renal) was 28700 nM. The GI50 (SK-MEL-5 melanoma) was 3.65 nM and 4.53 nM, the TGI (SK-MEL-5 melanoma) was 29.1 nM and 15 nM and the GI50 (SF-295 CNS) was 3.71 nM and 4.53 nM. For the same compound, the GI50 (SK-MEL-28 melanoma) was 12.1 nM and 10.2 nM, the TGI (SK-MEL-28 melanoma) was 13300 nM and the GI50 (HOP-62 NSCLC) was 70.5 nM and 27.8 nM. The TGI (HOP-62 NSCLC) was greater than 45300 nM, the GI50 (OVCAR-8 ovarian) was 17.9 nM and 7.45 nM and the TGI (OVCAR-8 ovarian) was greater than 45300 nM. For the same compound, the GI50 (A498 renal) was 13.2 nM and 13.5 nM, the GI50 (HCT-116 colon) was 3.71 nM and 4.53 nM and the TGI (HCT-116 colon) was greater than 45300 nM. The GI50 (K-562 leukemia) was 14.6 nM, the TGI (K-562 leukemia) was greater than 45300 nM and the GI50 (KM12 colon) was 9.59 nM and 13.5 nM. For the same compound, the TGI (KM12 colon) was greater than 45300 nM, the GI50 (SK-MEL-2 melanoma) was 7190 nM and the TGI (SK-MEL-2 melanoma) was 33100 nM. The GI50 (OVCAR-5 ovarian) was 8010 nM and 6550 nM, the TGI (OVCAR-5 ovarian) was greater than 45300 nM and the GI50 (PC-3 prostate) was 7.85 nM and 4.53 nM. The TGI (PC-3 prostate) was greater than 45300 nM, the GI50 (MCF7 breast) was 8.26 nM and 4.53 nM and the TGI (MCF7 breast) was greater than 45300 nM. For the same compound, the GI50 (HCT-15 colon) was 8.93 nM and 7.36 nM, the TGI (HCT-15 colon) was greater than 45300 nM and the GI50 (MDA-MB-435) was 3.74 nM and 4.53 nM. The TGI (MDA-MB-435) was 10600 nM, the GI50 (NCI-H522 lung) was 61.3 nM and 38.8 nM and the TGI (NCI-H522 lung) was 19200 nM. The GI50 (U251 CNS) was 4.72 nM and 4.53 nM and the TGI (U251 CNS) was 24700 nM.
